Results reported in patent US12691086B2, “Methods of treating systemic sclerosis and idiopathic pulmonary fibrosis” (HORIZON THERAPEUTICS IRELAND DAC, priority 2022, dated 2026).

Key:
[1] = tested on: bleomycin-induced skin fibrosis; assay: Bleomycin-induced skin fibrosis model, therapeutic protocol; format: in vivo, mouse; settings: 50 mg/kg/day
Excerpt: Two models of skin fibrosis were used to evaluate the effect of Compound I in comparison with imatinib mesylate, used as a reference.

thrombosis = assay: Model of thrombosis in mouse; format: in vivo; settings: one model in mouse
[2] = tested on: leukocytes and total inflammatory cells in broncho-alveolar lavage; assay: Broncho-alveolar lavage of presensitized mice treated with ovalbumin; format: in vivo
[3] = Single-dose PK under fasted conditions in healthy adult subjects; format: in vivo, human; settings: for AUC(0-inf) / AUC(0-t) / Cmax / Tmax / half-life: human, plasma, oral
Description: (§1) The PK of Compound I and food effect were evaluated in an open-label study in healthy volunteers to inform the dose and dosing condition of the tablet formulations used in the clinical studies. Dose proportionality and food effect were evaluated using a 2-way, 2-period crossover design in two cohorts:150 mg and 300 mg single dose under fasting condition in Cohort 1 and 450 mg single dose under fasting and high-fat, high calorie meal condition in Cohort 2. Multiple-dose PK was evaluated using a 2-period, fixed sequence crossover design. Subjects received Compound I twice a day (BID) of 300 mg (Cohort 3) or 450 mg (Cohort 4) administered with low-fat meals in Period 1 and with high-fat meals in Period 2.
(§2) PK sample collections: For cohort 1 and 2, blood samples were collected at predose, 0.5, 1, 2, 3, 4, 6, 8, 12, 24, 36, 48, 72, 96 and 120 h post dose. For cohort 3 and 4, blood samples were collected at predose, 0.5, 1, 2, 4, 5, 12 hrs after the first dose on Day 1. After the last dose on Day 5, PK samples were taken at predose, 0.5, 1, 2, 4, 6, 12, 24, 36, 60, 84, 108 hr in Period 1 and predose, 0.5, 1, 2, 4, 6, 12 hours post last dose in Period 2.
(§3) Plasma concentrations of Compound I were determined using a validated high performance liquid chromatography-tandem mass spectrometry (HPLC MS/MS) method. The analytical range of Compound I were 250-50,000 ng/mL (high range) and […] (low range). Dose-proportionality of pharmacokinetic parameters were examined by analysis of variance (ANOVA) where the AUC0-last, AUC0-inf, and Cmax parameters were dose normalized. 90% confidence intervals (CIs) were derived by exponentiation of the CIs obtained for the difference between the treatment LSMs (Least square means). Dose proportionality was established if the 90% CI for the ratio of the geometric means for the dose-normalized parameters lay within the limits of (0.7, 1.43).

[4] = Food effect on PK at 450 mg single dose in healthy adult subjects; format: in vivo, human; settings: for AUC(0-inf) / AUC(0-t) / Cmax: human, plasma, oral; for AUC(0-inf): read-out: AUC0-inf, Geometric LSM; for AUC(0-t): read-out: AUC0-last, Geometric LSM; for Cmax: read-out: Cmax, Geometric LSM
Description: as §1, §2, §3
Food effect was evaluated using ANOVA on the ln-transformed PK parameters. The ANOVA model included sequence, treatment, and period as fixed effects and subject nested within sequence as a random effect. Geometric least square means, geometric mean ratio (High fat vs. fasted) and 90% confidence interval of PK parameters (AUC and Cmax) were calculated from the ANOVA model.

[5] = Multiple-dose (BID) PK at steady state with meals in healthy adult subjects; format: in vivo, human; settings: for t1/2 / half-life: median; for Ctrough / AUC / Cmax: steady state, mean (% CV); for AUC / Cmax / half-life: human, plasma, oral
Description: as §1, §2, §3

[6] = therapeutic protocol, mouse skin
[7] = Fed (high-fat, high-calorie meal)
[8] = 300 mg BID, High-fat reduced calorie meal
[9] = 450 mg BID, High-fat high calorie meal
[10] = 300 mg, 300 mg BID, High-fat reduced calorie meal
[11] = 300 mg, 300 mg BID, Low-fat meal
[12] = 450 mg, 450 mg BID, High-fat high calorie meal
[13] = 450 mg, 450 mg BID, Low-fat meal

dose proportionality of Cmax and AUC ([3]; 150 to 450 mg, ANOVA): less than dose-proportional | AUC(0-inf) ([3]; 150 mg single dose): 85.2 µg·h/mL | AUC(0-t) ([3]; 150 mg single dose): 83.8 µg·h/mL | Cmax ([3]; 150 mg single dose): 11100 ng/mL | Tmax ([3]; 150 mg single dose): 3.5 h | half-life ([3]; 150 mg single dose): 21.8 h | AUC(0-inf) ([3]; 300 mg single dose): 120 µg·h/mL | AUC(0-t) ([3]; 300 mg single dose): 118 µg·h/mL | Cmax ([3]; 300 mg single dose): 14500 ng/mL | Tmax ([3]; 300 mg single dose): 4 h | half-life ([3]; 300 mg single dose): 22.4 h | AUC(0-inf) ([3]; 450 mg single dose): 126 µg·h/mL | AUC(0-t) ([3]; 450 mg single dose): 125 µg·h/mL | Cmax ([3]; 450 mg single dose): 15200 ng/mL | Tmax ([3]; 450 mg single dose): 3 h | half-life ([3]; 450 mg single dose): 18.3 h | Cmax, GMR fed vs fasted [4]: 190.85% | AUC(0-inf) ([4]; Fasted): 117 µg·h/mL | AUC(0-t) ([4]; Fasted): 116 µg·h/mL | Cmax ([4]; Fasted): 14000 ng/mL | AUC(0-inf) [4, 7]: 248 µg·h/mL | AUC(0-t) [4, 7]: 246 µg·h/mL | Cmax [4, 7]: 26700 ng/mL | t1/2 [5, 8]: 24.6 h | Ctrough [5, 8]: 8627 (17%) ng/mL | Ctrough ([5]; 300 mg BID, Low-fat meal): 6570 (13%) ng/mL | t1/2 [5, 9]: 27.7 h | Ctrough [5, 9]: 11000 (23%) ng/mL | Ctrough ([5]; 450 mg BID, Low-fat meal): 11000 (35%) ng/mL | AUC [5, 10]: 166 µg·h/mL | Cmax [5, 10]: 21700 ng/mL | AUC [5, 11]: 129 µg·h/mL | Cmax [5, 11]: 15900 ng/mL | AUC [5, 12]: 204 µg·h/mL | Cmax [5, 12]: 25800 ng/mL | AUC [5, 13]: 163 µg·h/mL | Cmax [5, 13]: 18400 ng/mL | half-life ([5]; 300 mg BID, Low-fat meal): 24.6 h | half-life ([5]; 450 mg BID, Low-fat meal): 27.7 h
SMILES: COc1ccc(C(=O)NC2(C(=O)O)Cc3ccccc3C2)cc1OCCc1cccc(C)c1 [Compound I, 2-(4-methoxy-3-(3-methylphenethoxy)benzamido)-2,3-dihydro-1H-indene-2-carboxylic acid]
effect on these markers versus imatinib reference [1]: comparable with the effects of imatinib | collagen content [1, 6]: able to reverse | dermal thickness [1, 6]: able to reverse | myofibroblast differentiation [1, 6]: able to reverse | antithrombotic activity (thrombosis): demonstrated antithrombotic activity | inflammation in model of lung injury ([2]; predominant Th2-type response): reduces inflammation | accumulation of leukocytes and total inflammatory cells in broncho-alveolar lavage ([2]; presensitized mice treated with ovalbumin): significant inhibitory effect
